Consider 27 compounds from patent publication US12479831B2, “Substituted N(-methyl-D3)pyridazine-3-carboxamide or M-(methyl-D3)-nicotinamide compounds as IL-12, IL-23 and/or IFNα modulators” (BRISTOL-MYERS SQUIBB COMPANY, priority 2020, dated 2025).

The structures appear in SMILES notation.

This assay has as its system IFNα-Induced STAT Phosphorylation in Human Whole Blood. As to the kind of experiment: IFNα-Induced STAT Phosphorylation in Human Whole Blood. The assay is classed as cell-based. The following applies: 1 h incubation with compound, 1000 U/mL recombinant human IFNα A/D for 15 min, pSTAT5 (pY694) median fluorescence intensity in CD3 positive population, read-out: hWB IC50. On the procedure: IFNα-Induced STAT Phosphorylation in Human Whole Blood
After an hour long incubation with compound, human whole blood (drawn with either EDTA or ACD-A as anti-coagulant) was stimulated with 1000 U/mL recombinant human IFNα A/D (R&D Systems 11200-2) for 15 min. The stimulation was stopped by adding Fix/Lyse buffer (BD 558049). Cells were stained with a CD3 FITC antibody (BD 555916), washed, and permeabilized on ice using Perm III buffer (BD 558050). […] The amount of pSTAT5 expression was quantitated by median fluorescence intensity after gating on the CD3 positive population.
IFNα-Induced STAT Phosphorylation in Human Whole Blood Inhibition Data

A word on the IC50: it is the point on the concentration scale where inhibition reaches its midpoint. In the case of `[2H]C([2H])([2H])NC(=O)c1nnc(NC(=O)C2CC2)cc1Nc1cccc(-c2ncc(C3(O)CCOC3)cn2)c1OC` (stereo not drawn) [Example 31, 6-(cyclopropanecarboxamido)-4-((3-(5-(3-hydroxytetrahydrofuran-3-yl)pyrimidin-2-yl)-2-methoxyphenyl)amino)-N-(methyl-d3)pyridazine-3-carboxamide], the IC50 stood at 24 nM.
With `[2H]C([2H])([2H])NC(=O)c1nnc(NC(=O)C2CC2)cc1Nc1cccc(-c2ncc(N3CCCC3=O)cn2)c1OC` [Example 112], the half-inhibitory concentration (IC50) was found to be 27 nM.
The figure for `[2H]C([2H])([2H])NC(=O)c1nnc(NC(=O)C2CC2)cc1Nc1cccc(-c2ccc(=O)n(C)n2)c1OC` [Example 9, 6-(cyclopropanecarboxamido)-4-((2-methoxy-3-(1-methyl-6-oxo-1,6-dihydropyridazin-3-yl)phenyl)amino)-N-(methyl-d3)pyridazine-3-carboxamide] is 214 nM; for `[2H]C([2H])([2H])NC(=O)c1nnc(Nc2cnc(C(C)(C)O)cn2)cc1Nc1cccc(-c2ncc(F)cn2)c1OC` [Example 101, 4-((3-(5-fluoropyrimidin-2-yl)-2-methoxyphenyl)amino)-6-((5-(2-hydroxypropan-2-yl)pyrazin-2-yl)amino)-N-(methyl-d3)pyridazine-3-carboxamide] it is 93 nM; for `[2H]C([2H])([2H])NC(=O)c1nnc(NC(=O)C2CC2)cc1Nc1cccc(-c2ncc3ncn(C)c3n2)c1OC` [Example 1, 6-(Cyclopropanecarboxamido)-4-((2-methoxy-3-(9-methyl-9H-purin-2-yl)phenyl)amino)-N-(methyl-d3)pyridazine-3-carboxamide] it is 254 nM.
For `[2H]C([2H])([2H])NC(=O)c1nnc(NC(=O)C2CC2)cc1Nc1cccc(-c2cnc(N3CCOCC3)cn2)c1OC` [Example 57, 6-(Cyclopropanecarboxamido)-4-((2-methoxy-3-(5-morpholinopyrazin-2-yl)phenyl)amino)-N-(methyl-d3)pyridazine-3-carboxamide], the IC50 came to 117 nM.
The same measure for `[2H]C([2H])([2H])NC(=O)c1nnc(NC(=O)C2CC2)cc1Nc1cccc(-c2ncc(C(=O)N(C)C3CC3)cn2)c1OC` [Example 52, 6-(cyclopropanecarboxamido)-4-((3-(5-(cyclopropyl(methyl)carbamoyl)pyrimidin-2-yl)-2-methoxyphenyl)amino)-N-(methyl-d3)pyridazine-3-carboxamide]: 50 nM; for `[2H]C([2H])([2H])NC(=O)c1nnc(Nc2cc3ccccc3nn2)cc1Nc1cccc(-c2ncc(F)cn2)c1OC` [Example 100, 6-(cinnolin-3-ylamino)-4-((3-(5-fluoropyrimidin-2-yl)-2-methoxyphenyl)amino)-N-(methyl-d3)pyridazine-3-carboxamide]: 165 nM.
With `[2H]C([2H])([2H])NC(=O)c1nnc(Nc2cc3n(n2)CCN(C)C3=O)cc1Nc1cccc(-c2ncccn2)c1OC` [Example 108, 4-((2-Methoxy-3-(pyrimidin-2-yl)phenyl)amino)-N-(methyl-d3)-6-((5-methyl-4-oxo-4,5,6,7-tetrahydropyrazolo[1,5-a]pyrazin-2-yl)amino)pyridazine-3-carboxamide], the IC50 came out at 137 nM.
The figure for `[2H]C([2H])([2H])NC(=O)c1nnc(Nc2cn(C)nn2)cc1Nc1cc(F)cc(-c2ncccn2)c1OC` [Example 93, 4-((5-fluoro-2-methoxy-3-(pyrimidin-2-yl)phenyl)amino)-N-(methyl-d3)-6-((1-methyl-1H-1,2,3-triazol-4-yl)amino)pyridazine-3-carboxamide] is 413 nM; for `[2H]C([2H])([2H])NC(=O)c1nnc(Nc2ccc(C)nn2)cc1Nc1cccc(-c2ncc(F)cn2)c1OC` [Example 94, 4-((3-(5-fluoropyrimidin-2-yl)-2-methoxyphenyl)amino)-N-(methyl-d3)-6-((6-methylpyridazin-3-yl)amino)pyridazine-3-carboxamide] it is 38 nM.
With `[2H]C([2H])([2H])NC(=O)c1cnc(Nc2cc(C(F)(F)F)n(C)n2)cc1Nc1cccc(-c2ncc(F)cn2)c1OC` [Example 64, 4-((3-(5-fluoropyrimidin-2-yl)-2-methoxyphenyl)amino)-N-(methyl-d3)-6-((1-methyl-5-(trifluoromethyl)-1H-pyrazol-3-yl)amino)nicotinamide], the IC50 stood at 75 nM.
Consider `[2H]C([2H])([2H])NC(=O)c1nnc(NC(=O)C2CC2)cc1Nc1cc(F)cc(-c2ncc(C3(O)CCC3)cn2)c1OC` [Example 28, 6-(cyclopropanecarboxamido)-4-((5-fluoro-3-(5-(1-hydroxycyclobutyl)pyrimidin-2-yl)-2-methoxyphenyl)amino)-N-(methyl-d3)pyridazine-3-carboxamide], for which the IC50 is 170 nM.
The same measure for `[2H]C([2H])([2H])NC(=O)c1cnc(Nc2cnc(C#N)cn2)cc1Nc1cccc(-c2ncc(F)cn2)c1OC` [Example 71, 6-((5-cyanopyrazin-2-yl)amino)-4-((3-(5-fluoropyrimidin-2-yl)-2-methoxyphenyl)amino)-N-(methyl-d3)nicotinamide]: 278 nM; for `[2H]C([2H])([2H])NC(=O)c1nnc(Nc2cn(CC)nn2)cc1Nc1cc(F)cc(-c2ncccn2)c1OC` [Example 92, 6-((1-ethyl-1H-1,2,3-triazol-4-yl)amino)-4-((5-fluoro-2-methoxy-3-(pyrimidin-2-yl)phenyl)amino)-N-(methyl-d3)pyridazine-3-carboxamide]: 136 nM.
Regarding `[2H]C([2H])([2H])NC(=O)c1nnc(NC(=O)C2CC2)cc1Nc1cccc(-c2cnc(C(=O)N3CCC3)cn2)c1OC` [Example 40, 4-((3-(5-(azetidine-1-carbonyl)pyrazin-2-yl)-2-methoxyphenyl)amino)-6-(cyclopropanecarboxamido)-N-(methyl-d3)pyridazine-3-carboxamide], the half-inhibitory concentration (IC50) amounted to 360 nM.
The figure for `[2H]C([2H])([2H])NC(=O)c1nnc(NC(=O)C2CC2)cc1Nc1cccc(-c2cnc(N(C)C(C)=O)cn2)c1OC` [Example 56, 6-(Cyclopropanecarboxamido)-4-((2-methoxy-3-(5-(N-methylacetamido)pyrazin-2-yl)phenyl)amino)-N-(methyl-d3)pyridazine-3-carboxamide] is 117 nM; for `[2H]C([2H])([2H])NC(=O)c1nnc(Nc2ccc(OC)nn2)cc1Nc1cccc(-c2ncc(F)cn2)c1OC` [Example 97, 4-((3-(5-fluoropyrimidin-2-yl)-2-methoxyphenyl)amino)-6-((6-methoxypyridazin-3-yl)amino)-N-(methyl-d3)pyridazine-3-carboxamide] it is 80 nM; for `[2H]C([2H])([2H])NC(=O)c1nnc(NC(=O)C2CC2)cc1Nc1cccc(-c2ncc(F)cc2C#N)c1OC` [Example 114] it is 242 nM.
As for `[2H]C([2H])([2H])NC(=O)c1cnc(Nc2cc(C)n(C)n2)cc1Nc1cccc(-c2ncc(F)cn2)c1OC` [Example 63, 6-((1,5-dimethyl-1H-pyrazol-3-yl)amino)-4-((3-(5-fluoropyrimidin-2-yl)-2-methoxyphenyl)amino)-N-(methyl-d3)nicotinamide], the IC50 was 49 nM.
The same measure for `[2H]C([2H])([2H])NC(=O)c1nnc(NC(=O)C2CC2)cc1Nc1cc(F)cc(-c2ncc(C(=O)N(C)CC)cn2)c1OC` [Example 54, 6-(cyclopropanecarboxamido)-4-((3-(5-(ethyl(methyl)carbamoyl)pyrimidin-2-yl)-5-fluoro-2-methoxyphenyl)amino)-N-(methyl-d3)pyridazine-3-carboxamide]: 80 nM.
As to `[2H]C([2H])([2H])NC(=O)c1nnc(Nc2cc(C(=O)N(C)C)n(C)n2)cc1Nc1cccc(-c2ncc(F)cn2)c1OC` [Example 85, 6-((5-(dimethylcarbamoyl)-1-methyl-1H-pyrazol-3-yl)amino)-4-((3-(5-fluoropyrimidin-2-yl)-2-methoxyphenyl)amino)-N-(methyl-d3)pyridazine-3-carboxamide], the IC50 is 43 nM.
The figure for `[2H]C([2H])([2H])NC(=O)c1nnc(Nc2ccc(C3CC3)nn2)cc1Nc1cccc(-c2ncc(F)cn2)c1OC` [Example 99, 6-((6-cyclopropylpyridazin-3-yl)amino)-4-((3-(5-fluoropyrimidin-2-yl)-2-methoxyphenyl)amino)-N-(methyl-d3)pyridazine-3-carboxamide] is 71 nM.
The same measure for `[2H]C([2H])([2H])NC(=O)c1nnc(NC(=O)C2CC2)cc1Nc1cccc(-c2nccc(C(=O)N(C)C)n2)c1OC` [Example 49, 6-(cyclopropanecarboxamido)-4-((3-(4-(dimethylcarbamoyl)pyrimidin-2-yl)-2-methoxyphenyl)amino)-N-(methyl-d3)pyridazine-3-carboxamide]: 327 nM; for `[2H]C([2H])([2H])NC(=O)c1nnc(Nc2cn(C)nn2)cc1Nc1cccc(-c2ncc(F)cn2)c1OC` [Example 91, 4-((3-(5-fluoropyrimidin-2-yl)-2-methoxyphenyl)amino)-N-(methyl-d3)-6-((1-methyl-1H-1,2,3-triazol-4-yl)amino)pyridazine-3-carboxamide]: 167 nM; for `[2H]C([2H])([2H])NC(=O)c1nnc(Nc2cn(CC)nn2)cc1Nc1cccc(-c2ncccn2)c1OC` [Example 88, 6-((1-ethyl-1H-1,2,3-triazol-4-yl)amino)-4-((2-methoxy-3-(pyrimidin-2-yl)phenyl)amino)-N-(methyl-d3)pyridazine-3-carboxamide]: 145 nM.
The same measure for `[2H]C([2H])([2H])NC(=O)c1cnc(Nc2cc(C#N)n(C)n2)cc1Nc1cccc(-c2ncc(F)cn2)c1OC` [Example 62, 6-((5-cyano-1-methyl-1H-pyrazol-3-yl)amino)-4-((3-(5-fluoropyrimidin-2-yl)-2-methoxyphenyl)amino)-N-(methyl-d3)nicotinamide]: 109 nM.
